Values after ≈ are worked out from the molar mass of the structure shown.

One may read the MIC as the lowest concentration found to suppress growth. A lower MIC goes with greater potency.

This experiment has as its system Mycobacterium tuberculosis. Description: Antimycobacterial activity against isoniazid-resistant Mycobacterium tuberculosis by broth dilution assay. The format is functional. (In general: Broth dilution looks for growth in wells or tubes with falling amounts of substance.)
In turn, `COc1cc(C2=NN(C(N)=S)C(Cc3ccccc3)C2)ccc1OCC(=O)O` (configuration not stated) showed an MIC of 6.25 µg/mL (≈ 15.6 µM). The result for `COc1cc(C2=NN(C(N)=S)C(c3ccccc3O)C2)ccc1OCC(=O)O` (configuration not stated) reads 0.58 µg/mL (≈ 1.44 µM); that for `COc1cc(C2=NN(C(N)=O)C(c3ccccc3)C2)ccc1OCC(=O)O` (configuration not stated), 6.12 µg/mL (≈ 16.6 µM). On to `COc1cc(C2=NN(C(N)=O)C(c3ccc(C)cc3)C2)ccc1OCC(=O)O` (configuration not stated), for which it took 6.25 µg/mL (≈ 16.3 µM) to inhibit growth (MIC). The result for `COc1cc(C2=NN(C(N)=S)C(c3ccc(O)cc3)C2)ccc1OCC(=O)O` (configuration not stated) reads 0.2 µg/mL (≈ 0.498 µM); that for `COc1cc(C2=NN(C(N)=O)C(c3ccccc3Cl)C2)ccc1OCC(=O)O` (configuration not stated), 1.26 µg/mL (≈ 3.12 µM). In the case of `COc1cc(C2=NN(C(N)=O)C(c3ccc(N)cc3)C2)ccc1OCC(=O)O` (configuration not stated), the MIC is 5.42 µg/mL (≈ 14.1 µM). The result for `COc1cc(C2=NN(C(N)=S)C(c3ccc(C)cc3)C2)ccc1OCC(=O)O` (configuration not stated) reads 6.15 µg/mL (≈ 15.4 µM); that for `COc1cc(C2=NN(C(N)=S)C(c3ccc(Cl)cc3)C2)ccc1OCC(=O)O` (configuration not stated), 0.06 µg/mL (≈ 0.143 µM); that for `COc1cc(C2=NN(C(N)=S)C(c3ccccc3Cl)C2)ccc1OCC(=O)O` (configuration not stated), 0.12 µg/mL (≈ 0.286 µM). As for `COc1cc(C2=NN(C(N)=O)C(c3ccc(F)cc3)C2)ccc1OCC(=O)O` (configuration not stated), the figure is 3.25 µg/mL (≈ 8.39 µM); as for `COc1cc(C2=NN(C(N)=O)C(c3ccc(Cl)cc3)C2)ccc1OCC(=O)O` (configuration not stated), 0.13 µg/mL (≈ 0.322 µM); as for `COc1cc(C2=NN(C(N)=O)C(Cc3ccccc3)C2)ccc1OCC(=O)O` (configuration not stated), 6.25 µg/mL (≈ 16.3 µM). The result for `COc1cc(C2=NN(C(N)=S)C(c3ccc(N)cc3)C2)ccc1OCC(=O)O` (configuration not stated) reads 12.5 µg/mL (≈ 31.2 µM); that for `COc1cc(C2=NN(C(N)=S)C(c3cccc([N+](=O)[O-])c3)C2)ccc1OCC(=O)O` (configuration not stated), 3.12 µg/mL (≈ 7.25 µM). In the case of `COc1cc(C2=NN(C(N)=S)C(c3ccccc3)C2)ccc1OCC(=O)O` (configuration not stated), 6.25 µg/mL (≈ 16.2 µM) was the least that counted as inhibitory (MIC). The compound `COc1cc(C2=NN(C(N)=O)C(c3ccccc3O)C2)ccc1OCC(=O)O` (configuration not stated) displayed an MIC of 0.58 µg/mL (≈ 1.51 µM).

`COc1cc(C2=NN(C(N)=O)C(c3cccc([N+](=O)[O-])c3)C2)ccc1OCC(=O)O` (configuration not stated) had an MIC of 6.25 µg/mL (≈ 15.1 µM). In turn, `COc1cc(C2=NN(C(N)=S)C(c3ccc(F)cc3)C2)ccc1OCC(=O)O` (configuration not stated) came in with an MIC of 0.96 µg/mL (≈ 2.38 µM). As for `COc1cc(C2=NN(C(N)=O)C(c3ccc(O)cc3)C2)ccc1OCC(=O)O` (configuration not stated), the figure is 1.23 µg/mL (≈ 3.19 µM); as for `COc1cc(C2=NN(C(N)=O)C(c3ccc([N+](=O)[O-])cc3)C2)ccc1OCC(=O)O` (configuration not stated), 6.25 µg/mL (≈ 15.1 µM). Consider `COc1cc(C2=NN(C(N)=S)C(c3ccc([N+](=O)[O-])cc3)C2)ccc1OCC(=O)O` (configuration not stated), for which the MIC stood at 6.25 µg/mL (≈ 14.5 µM).

These data come from ChEMBL document CHEMBL1146385, “Discovery of novel phenoxyacetic acid derivatives as antimycobacterial agents” (2007).
